Experimental data taken from PMC8137473, “Preclinical trial of a MAP4K4 inhibitor to reduce infarct size in the pig: does cardioprotection in human stem cell-derived myocytes predict success in large mammals?” (Basic Research in Cardiology, 2021).

Assay: aqueous solubility
Assay type: physicochemical
Protocol: The chemical structures of DMX-5804 and DMX-10001 are compared in Fig. 1a, highlighting the phosphate moiety of the pro-drug. The aqueous solubility of DMX-10001 was > 400-fold greater than that of DMX-5804, allowing it to be infused i.v. without prohibitive fluid volumes. Cleavage to DMX-5804 was detectable in rats within 5 min and largely complete within 60 min (Fig. 1b). Data from i.v. infusion at a range of dose levels in the pig were simultaneously fit to a three-compartment pharmacokinetic model. Plasma protein binding in pig was used to determine free drug levels (not shown). Various dosing regimens were simulated to avoid an initial spike in DMX-5804 whilst rapidly achieving the efficacious drug levels seen in mice after oral gavage (Fig. 1c).

Compound: COCCOc1ccc(-c2cn(-c3ccccc3)c3ncn(COP(=O)(O)O)c(=O)c23)cc1 [DMX-10001]
- aqueous solubility relative to that of DMX-5804: > 400 fold
